Among the data in US9987276B2 (Celgene CAR LLC, priority 2008, dated 2018) are IC50 values, retold here.

Test [1] deals with EGFR-WT (Homo sapiens (Human), UniProt P00533). Put plainly: Omnia assay for potency assessment against EGFR (WT).
Test [2] concerns the target T1, BTK (Homo sapiens (Human), UniProt Q06187). Put plainly: Omnia assay for potency assessment against BTK. Format: biochemical. Particulars: [BTK]=5 nM, Omnia assay; read-out: BTK Inhibition (IC50). The procedure:
The modified BTK-optimized reagent conditions for the above protocol are:
[BTK]=5 nM, [ATP]=[…], [Y5-Sox]=[…] (ATP KMapp˜[…]).

For test [3], the target named is T1, BTK. Description: BTK Ramos cellular assay (PLCγ2 phosphorylation). Format: cell-based. Particulars: Ramos cells, 1 hour compound, anti-IgM stimulation, p-PLCγ2; read-out: BTK Inhibition (IC50), BTK Ramos cellular inhibition.
The target of test [4] is ITK (Homo sapiens (Human), UniProt Q08881). Put plainly: Omnia assay for potency assessment against active forms of ITK kinase. The following applies: [ITK]=10 nM, [ATP]=25, [Y6-Sox]=10 μM; read-out: ITK Inhibition. Format: biochemical. The procedure:
[ITK]=10 nM, [ATP]=25 [Y6-Sox]=10 μM (ATP KMapp=33 μM).

[5] abbreviates: read-out: EGFR (wild type inhibition), EGFR wild type.

Molecules are shown by their SMILES. Where two headings read alike, the source gives them in different places.

T1 sequence (Q06187 whole entry): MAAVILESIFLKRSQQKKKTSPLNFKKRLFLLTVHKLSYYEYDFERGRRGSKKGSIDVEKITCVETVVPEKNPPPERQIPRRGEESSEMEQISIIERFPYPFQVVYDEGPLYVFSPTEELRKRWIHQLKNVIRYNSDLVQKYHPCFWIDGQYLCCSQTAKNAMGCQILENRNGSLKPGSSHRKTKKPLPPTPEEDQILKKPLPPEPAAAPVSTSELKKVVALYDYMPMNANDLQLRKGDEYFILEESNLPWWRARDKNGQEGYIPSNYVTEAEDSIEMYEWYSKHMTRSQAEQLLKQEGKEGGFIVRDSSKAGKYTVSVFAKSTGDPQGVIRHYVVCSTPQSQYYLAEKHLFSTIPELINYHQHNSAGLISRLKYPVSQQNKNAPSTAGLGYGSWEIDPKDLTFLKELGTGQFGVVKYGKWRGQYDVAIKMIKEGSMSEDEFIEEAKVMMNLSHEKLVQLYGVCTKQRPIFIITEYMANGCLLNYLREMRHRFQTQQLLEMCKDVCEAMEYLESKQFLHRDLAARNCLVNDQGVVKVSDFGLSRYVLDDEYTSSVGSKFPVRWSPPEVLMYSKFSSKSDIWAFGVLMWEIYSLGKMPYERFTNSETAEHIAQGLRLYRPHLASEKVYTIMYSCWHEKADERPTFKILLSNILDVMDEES
Chain of ITK (Q08881 whole entry): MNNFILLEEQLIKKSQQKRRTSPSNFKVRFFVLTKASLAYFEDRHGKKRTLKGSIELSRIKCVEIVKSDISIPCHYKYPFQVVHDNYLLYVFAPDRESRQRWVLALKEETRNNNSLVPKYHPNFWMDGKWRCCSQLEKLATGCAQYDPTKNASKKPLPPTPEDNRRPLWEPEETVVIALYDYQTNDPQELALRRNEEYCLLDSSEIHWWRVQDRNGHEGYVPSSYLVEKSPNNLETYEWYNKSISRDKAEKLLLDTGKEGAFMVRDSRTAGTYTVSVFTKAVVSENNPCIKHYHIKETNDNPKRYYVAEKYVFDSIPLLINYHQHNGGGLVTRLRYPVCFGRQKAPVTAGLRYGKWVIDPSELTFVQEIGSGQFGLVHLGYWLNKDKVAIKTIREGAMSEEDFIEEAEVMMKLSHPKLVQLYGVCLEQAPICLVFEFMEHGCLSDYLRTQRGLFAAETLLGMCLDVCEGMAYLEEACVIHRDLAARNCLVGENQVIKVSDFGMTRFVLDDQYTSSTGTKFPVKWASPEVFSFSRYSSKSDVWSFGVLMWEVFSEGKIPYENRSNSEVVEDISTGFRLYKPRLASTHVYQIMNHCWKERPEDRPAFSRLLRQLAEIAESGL
Chain of EGFR-WT (P00533 668-1210): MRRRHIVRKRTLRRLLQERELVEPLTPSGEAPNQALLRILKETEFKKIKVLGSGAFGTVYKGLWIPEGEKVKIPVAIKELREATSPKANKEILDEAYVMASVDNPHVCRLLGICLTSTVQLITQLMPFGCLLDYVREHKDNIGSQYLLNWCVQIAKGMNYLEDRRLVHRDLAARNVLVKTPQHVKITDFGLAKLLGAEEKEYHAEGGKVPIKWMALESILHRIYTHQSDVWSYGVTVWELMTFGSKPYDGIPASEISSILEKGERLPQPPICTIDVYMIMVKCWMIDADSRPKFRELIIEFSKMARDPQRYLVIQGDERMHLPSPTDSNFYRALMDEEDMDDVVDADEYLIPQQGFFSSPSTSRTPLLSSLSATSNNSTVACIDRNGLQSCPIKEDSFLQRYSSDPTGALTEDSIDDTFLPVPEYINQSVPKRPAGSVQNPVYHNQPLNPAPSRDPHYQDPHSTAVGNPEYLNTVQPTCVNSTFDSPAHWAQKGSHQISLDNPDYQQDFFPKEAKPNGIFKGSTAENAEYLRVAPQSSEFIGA

`C=CC(=O)Nc1cccc(Nc2nc(Nc3ccc(N(C)CCOC)nc3)ncc2F)c1` [Compound I-77]: the IC50 in test [1] is 10 to 100 nM; in test [2] it was less than 10 nM; in test [3], less than 10 nM; in test [4] it was 10 to 100 nM.

Consider `C=CC(=O)Nc1cccc(Nc2nc(Nc3ccc(OCC(C)(C)O)nc3)ncc2F)c1` [Compound I-313, N-(3-(5-fluoro-2-(6-(2-hydroxy-2-methylpropoxy)pyridin-3-ylamino)pyrimidin-4-ylamino)phenyl)acrylamide], for which the IC50 in test [1] was 10 to 100 nM; in test [2], less than 10 nM; in test [3], less than 10 nM; in test [4], 10 to 100 nM.

As for `C=CC(=O)Nc1cccc(Oc2nc(Nc3ccc(OC)nc3)ncc2C(=O)Nc2ccccc2)c1` [Compound I-159, 4-(3-acrylamidophenoxy)-2-(6-methoxypyridin-3-ylamino)-pyrimidine-5-carboxylic acid phenylamide], the IC50 is less than 10 nM in test [1] (setting [5]), less than 10 nM in test [2], 100 to 1000 nM in test [3] and 100 to 1000 nM in test [4].

Turning to `C=CC(=O)Nc1cccc(Nc2nc(Nc3ccc4[nH]ncc4c3)ncc2F)c1` [Compound I-156], the IC50 in test [1] (setting [5]), in test [2], in test [3] and in test [4] was less than 10 nM each time.

Take `C=CC(=O)Nc1cccc(Nc2nc(Nc3ccc(OC)nc3)ncc2C#N)c1` [Compound I-173, N-(3-(5-cyano-2-(6-methoxypyridin-3-ylamino)pyrimidin-4-ylamino)phenyl)acrylamide]: the IC50 in test [1] (setting [5]), in test [2], in test [3] and in test [4] was less than 10 nM throughout.

On to `C=CC(=O)Nc1cccc(Nc2nc(Nc3ccc(OC(C)C)nc3)ncc2F)c1` [Compound I-172, N-(3-(5-fluoro-2-(6-isopropoxypyridin-3-ylamino)pyrimidin-4-ylamino)phenyl)acrylamide], for which the IC50 in test [1] was 100 to 1000 nM; in test [2] it was less than 10 nM; in test [3], less than 10 nM; in test [4], 10 to 100 nM.

Consider `C=CC(=O)Nc1cccc(Nc2nc(Nc3cccc(OC)c3)ncc2OC)c1` [Compound I-158, N-(3-(5-methoxy-2-(3-methoxyphenylamino)pyrimidin-4-ylamino)phenyl)acrylamide], for which the IC50 in test [1] was 10 to 100 nM; in test [2], less than 10 nM; in test [3], 10 to 100 nM; in test [4], 10 to 100 nM.

With `C=CC(=O)Nc1cccc(Nc2nc(Nc3cccc(OCC(=O)N4CCOCC4)c3)ncc2F)c1` [Compound I-110, N-(3-(5-fluoro-2-(3-(2-morpholino-2-oxoethoxy)phenylamino)pyrimidin-4-ylamino)phenyl)acrylamide], the IC50 is 10 to 100 nM in test [1], less than 10 nM in test [2], 10 to 100 nM in test [3] and 10 to 100 nM in test [4].

As for `C=CC(=O)Nc1cccc(Nc2nc(Nc3cccc(OCC(C)(C)O)c3)ncc2F)c1` [Compound I-118, N-(3-(5-fluoro-2-(3-(2-hydroxy-2-methylpropoxy)phenylamino)pyrimidin-4-ylamino)phenyl)acrylamide], the IC50 is 10 to 100 nM in test [1], less than 10 nM in test [2], less than 10 nM in test [3] and 10 to 100 nM in test [4].

As to `C=CC(=O)Nc1cccc(Nc2nc(Nc3ccccc3)ncc2C#N)c1` [Compound I-157, N-(3-(5-cyano-2-(phenylamino)pyrimidin-4-ylamino)phenyl)acrylamide], the IC50 in test [1] (setting [5]), in test [2], in test [3] and in test [4] was less than 10 nM throughout.

Take `C=CC(=O)Nc1cccc(Nc2nc(Nc3ccc(Cl)c(OCCOC)c3)ncc2F)c1` [Compound I-321, N-(3-(2-(4-chloro-3-(2-methoxyethoxy)phenylamino)-5-fluoropyrimidin-4-ylamino)phenyl)acrylamide]: the IC50 in test [1] was 100 to 1000 nM; in test [2], less than 10 nM; in test [3] it was less than 10 nM; in test [4], 100 to 1000 nM.
